# Results from patent publication US11091451B2, “SHMT inhibitors and uses thereof” (Raze Therapeutics, Inc., priority 2016, dated 2021).
# Tests used:
# [1] = biological target: Human mitochondrial SHMT2 (Homo sapiens (Human), UniProt P34897); assay: SHMT2 activity inhibition assay (serine production from glycine and CH2-THF, mass spectroscopy); assay type: biochemical; settings: 60 minutes at room temperature
# Description: (§1) Full length human cytosolic Serine Hydroxymethyl transferase 1 (SHMT1, residues 1-483 in Uniport ID P34896) was expressed as an N-terminal His6 tagged protein and purified in E. coli using nickel capture followed by size-exclusion chromatography. Human mitochondrial SHMT2 (residues 30-504 in Uniprot ID P34897) with mitochondrial leader sequence deleted was expressed as an N-terminal His6 tagged protein and purified in E. coli using nickel capture followed by size-exclusion chromatography.
# Serine hydroxymethyltransferases catalyze the reversible hydroxymethylation of glycine to serine, with methylene tetrahydrofolate (CH2-THF) providing the additional carbon. SHMT1 and SHMT2 activity was determined by measuring serine production from glycine and CH2-THF using mass spectroscopy. Briefly, 15 ul of 0.5 mM glycine and 0.2 mM CH2-THF in 20 mM TEA, pH8.0, 0.2 mM NADPH were added to 384 well plate containing 0, 0.05 mM, 0.005 mM or 0.0005 mM of inhibitor. […] The plate was incubated for 60 minutes at room temperature and the reaction was quenched by the addition of 30 ul of 10% trichloroacetic acid. Serine produced was analyzed using Rapidfire 360 and API4000^+ in the positive ion mode.
# [2] = biological target: human cytosolic Serine Hydroxymethyl transferase 1 (SHMT1) (Homo sapiens (Human), UniProt P34896); assay: SHMT1 activity inhibition assay (serine production from glycine and CH2-THF, mass spectroscopy); assay type: biochemical; settings: 60 minutes at room temperature
# Description: as §1
# Serine hydroxymethyltransferases catalyze the reversible hydroxymethylation of glycine to serine, with methylene tetrahydrofolate (CH2-THF) providing the additional carbon. SHMT1 and SHMT2 activity was determined by measuring serine production from glycine and CH2-THF using mass spectroscopy. Briefly, 15 ul of 0.5 mM glycine and 0.2 mM CH2-THF in 20 mM TEA, pH8.0, 0.2 mM NADPH were added to 384 well plate containing 0, 0.05 mM, 0.005 mM or 0.0005 mM of inhibitor. 15 ul of SHMT1 or 2 were added to initiate the reaction. The plate was incubated for 60 minutes at room temperature and the reaction was quenched by the addition of 30 ul of 10% trichloroacetic acid. Serine produced was analyzed using Rapidfire 360 and API4000^+ in the positive ion mode.
# Sequence of Human mitochondrial SHMT2 (P34897 30-504): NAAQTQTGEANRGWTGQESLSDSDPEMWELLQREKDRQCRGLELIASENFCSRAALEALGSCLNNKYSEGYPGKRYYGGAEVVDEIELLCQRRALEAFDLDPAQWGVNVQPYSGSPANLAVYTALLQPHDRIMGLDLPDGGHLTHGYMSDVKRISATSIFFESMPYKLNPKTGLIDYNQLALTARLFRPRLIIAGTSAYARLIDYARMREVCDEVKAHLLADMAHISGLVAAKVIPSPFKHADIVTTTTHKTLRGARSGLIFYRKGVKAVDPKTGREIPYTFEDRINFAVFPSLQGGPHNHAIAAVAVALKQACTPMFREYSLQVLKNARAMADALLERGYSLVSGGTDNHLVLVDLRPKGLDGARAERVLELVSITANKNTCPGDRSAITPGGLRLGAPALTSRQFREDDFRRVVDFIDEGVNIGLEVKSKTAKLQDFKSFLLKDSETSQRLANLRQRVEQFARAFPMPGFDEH
# Sequence of human cytosolic Serine Hydroxymethyl transferase 1 (SHMT1) (P34896 whole entry): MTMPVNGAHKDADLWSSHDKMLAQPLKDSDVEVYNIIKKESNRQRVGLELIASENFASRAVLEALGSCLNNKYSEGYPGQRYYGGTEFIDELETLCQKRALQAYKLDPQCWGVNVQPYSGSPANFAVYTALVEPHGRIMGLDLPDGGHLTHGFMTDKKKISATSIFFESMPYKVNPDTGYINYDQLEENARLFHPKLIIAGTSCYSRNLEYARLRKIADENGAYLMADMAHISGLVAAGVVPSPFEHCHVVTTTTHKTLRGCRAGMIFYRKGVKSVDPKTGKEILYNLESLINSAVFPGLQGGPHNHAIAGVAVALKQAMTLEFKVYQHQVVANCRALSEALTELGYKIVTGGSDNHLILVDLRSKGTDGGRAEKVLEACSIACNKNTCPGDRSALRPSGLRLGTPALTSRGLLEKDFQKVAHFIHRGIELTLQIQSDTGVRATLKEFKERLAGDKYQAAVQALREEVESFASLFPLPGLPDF
Structure (SMILES),IC50 [1],IC50 [2]
CSCC[C@H](NC(=O)Cc1csc(-c2ccc(Cl)cc2Cl)n1)C(=O)O [Compound I-48],100 to 500 µM,100 to 500 µM
O=C(Cc1csc(-c2cccc(Cl)c2)n1)N[C@@H](Cc1c[nH]c2ccccc12)C(=O)O [Compound I-49],100 to 500 µM,100 to 500 µM
O=C(O)CNC(=O)Cc1csc(-c2ccc(OC(F)(F)F)cc2)n1 [Compound I-50],100 to 500 µM,100 to 500 µM
CC(C)c1ccc(-c2nc(CC(=O)N[C@@H](Cc3c[nH]c4ccccc34)C(=O)O)cs2)cc1 [Compound I-51],100 to 500 µM,100 to 500 µM
O=C(Cc1csc(-c2cccc(Br)c2)n1)N[C@@H](Cc1ccccc1)C(=O)O [Compound I-52],100 to 500 µM,100 to 500 µM
CC(C)c1ccc(-c2nc(CC(=O)N[C@@H](C(=O)O)c3ccccc3)cs2)cc1 [Compound I-54],100 to 500 µM,100 to 500 µM
O=C(Cc1csc(-c2ccc(Cl)cc2Cl)n1)N[C@@H](C(=O)O)c1ccccc1 [Compound I-55],100 to 500 µM,100 to 500 µM
CC(C)c1ccc(-c2nc(CC(=O)N[C@@H](Cc3ccccc3)C(=O)O)cs2)cc1 [Compound I-56],100 to 500 µM,100 to 500 µM
COc1ccccc1-c1nc(CC(=O)N[C@@H](C)C(=O)O)cs1 [Compound I-57],10 to 100 µM,100 to 500 µM
CC(C)[C@H](NC(=O)Cc1csc(-c2ccc(Cl)cc2Cl)n1)C(=O)O [Compound I-58],100 to 500 µM,100 to 500 µM
O=C(O)CNC(=O)Cc1csc(-c2cccc(Cl)c2Cl)n1 [Compound I-59],100 to 500 µM,100 to 500 µM
O=C(Cc1csc(-c2cccc(Br)c2)n1)NC(Cc1ccccc1)C(=O)O (stereo not shown) [Compound I-60],100 to 500 µM,100 to 500 µM
COc1ccccc1-c1nc(CC(=O)NC(C)C(=O)O)cs1 (stereo not shown) [Compound I-61],10 to 100 µM,100 to 500 µM
"O=C(O)CNC(=O)Cc1csc(-c2ccc3c(c2)OCCO3)n1 [Compound I-62, 2-[2-[2-(2,3-dihydro-1,4-benzodioxin-6-yl)-1,3-thiazol-4-yl]acetamido]acetic Acid]",100 to 500 µM,100 to 500 µM
O=C(Cc1csc(-c2ccc(Cl)cc2)n1)N[C@@H](C(=O)O)c1ccccc1 [Compound I-63],100 to 500 µM,100 to 500 µM
"CC(C)(C(=O)NCC(=O)O)c1csc(-c2ccc(Cl)cc2Cl)n1 [Compound I-64, 2-[2-[2-(2,4-dichlorophenyl)-1,3-thiazol-4-yl]-2-methylpropanamido]acetic Acid]",100 to 500 µM,100 to 500 µM
"NC(=O)Cc1cc(Cl)ccc1-c1nc(CC(=O)NCC(=O)O)cs1 [Compound I-65, 2-(2-[2-[2-(carbamoylmethyl)-4-chlorophenyl]-1,3-thiazol-4-yl]acetamido)acetic Acid]",100 to 500 µM,100 to 500 µM
O=C(O)CNC(=O)C(c1ccccc1)c1csc(-c2ccc(Cl)cc2Cl)n1 (stereo not shown) [Compound I-66],> 500 µM,100 to 500 µM
CC[C@@H](C)[C@H](NC(=O)Cc1csc(-c2ccc(Cl)cc2Cl)n1)C(=O)O [Compound I-67],100 to 500 µM,100 to 500 µM
O=C(Cc1csc(-c2cccc(Cl)c2)n1)N[C@@H](Cc1ccccc1)C(=O)O [Compound I-68],100 to 500 µM,100 to 500 µM
O=C(Cc1csc(-c2ccccc2Cl)n1)N[C@@H](Cc1ccccc1)C(=O)O [Compound I-69],100 to 500 µM,100 to 500 µM
"O=C(O)CNC(=O)Cc1csc(-c2ccc(Cl)cc2CCO)n1 [Compound I-70, 2-(2-[2-[4-chloro-2-(2-hydroxyethyl)phenyl]-1,3-thiazol-4-yl]acetamido) acetic Acid]",100 to 500 µM,100 to 500 µM
C[C@H](NC(=O)Cc1csc(-c2ccccc2F)n1)C(=O)O [Compound I-71],100 to 500 µM,100 to 500 µM
